Key:
[1] = set-up: species or system human (healthy subjects); details: human, in vivo
Protocol: For this reason, in Study HDP-CDV-201, HDP-CDV was administered to fasted subjects. […] For this reason, in future studies, HDP-CDV may be administered with a food whenever possible.
However, the clinical significance of these findings is currently unknown and anecdotal reports indicate that gastrointestinal symptoms during HDP-CDV therapy may be mitigated by administration of HDP-CDV with food. […] In Study HDP-CDV-301, HDP-CDV is dosed with food; there is no restriction on the amount or type of food eaten. Therefore, evidence of the effectiveness of HDP-CDV is established in Study […] in subjects who receive HDP-CDV in the fed state.

[2] = Study HDP-CDV-201 post hoc analysis of preemptive therapy with anti-CMV STOC during follow-up; type: in vivo, human (HCT recipients)
Protocol: Subjects who developed CMV infection or disease at any time during the up to 11-week treatment period (through approximately 100 days posttransplant) were discontinued from study treatment (i.e., HDP-CDV or placebo) and followed for a period of 4 weeks, while subjects who completed the treatment period were followed for a period of 8 weeks. After study treatment was discontinued, subjects were treated with PrT for CMV infection/disease.
Among the study population (N=230 subjects), subjects who received STOC for PrT, defined as receiving at least one of GCV, vGCV, FOS or IV CDV for the explicit treatment of CMV infection/disease during the follow-up (“FU”) period, were identified. […]
Baseline measures for clinical laboratory values were defined as the last value on or before the last day of study treatment. The maximal decrease in ANC was determined using the minimum value reported after the last day of study treatment. The maximal increase in serum creatinine was determined using the maximum value reported after the last day of study treatment. […]
AEs were counted if the onset day was after the last day of study treatment. […] P-values were determined using Fisher's exact test for binary data and an independent t-test (pooled) for continuous data.

[3] = rat, in vivo
Source text: AME of ^14C-HDP-CDV Following Oral Administration to Bile Duct-Intact and Bile Duct-Cannulated Rats. In order to more fully define the CYP enzymes involved in HDP-CDV elimination, the disposition and metabolism of ^14C-radiolabeled-HDP-CDV was studied in bile-duct cannulated rats either with or without pretreatment with the broad-spectrum CYP inhibitor aminobenzotriazole (ABT). This study has completed the in-life phase and sample analysis is ongoing.

## CCCCCCCCCCCCCCCCOCCCOP(=O)(O)COC(CO)Cn1ccc(N)nc1=O (stereo not drawn) [HDP-CDV]
[1]
  reduction of peak plasma concentration (Cmax): 48%
  reduction of systemic exposure (AUCinf): 28%
[1]; po
  systemic exposure, tablet lower than oral solution: about 13%
[2]; 100 mg twice-weekly (11/50)
  rate of preemption: 22.0%
[2]; four cohorts ≧100 mg HDP-CDV per week (38 of 146)
  incidence of preemptive therapy with anti-CMV STOC: 26.0%
[3]
  administered radioactivity excreted in bile: ~8%
  administered radioactivity excreted in feces: ~57%
  administered radioactivity excreted in urine: approximately 30%
  radioactivity excreted in bile: 3%
  radioactivity excreted in feces: 55%
  radioactivity excreted in urine: 28%
  recovery of radioactivity: ≥ 90%

From patent publication US20140303092A1 (CHIMERIX, INC., priority 2011, published 2014)
